Assay results: US7666900B2, “ABCA1 stabilizer” (Hykes Laboratories LLC, priority 2004, dated 2010)

Legend:
[1] = system: THP-1 cells; assay: apoAI-dependent HDL-generating reaction in THP-1 cells (cholesterol and phospholipid taken out into the medium); format: cell-based, human; details: for Release of HDL Cholesterol (Relative Ratio %) / Release of Phospholipid (Relative Ratio %): apoAI-dependent, non-treated cells = 100
Description: (§1) THP-1 cells (human leukemia cells: American Type Culture Collection) were cultured for 72 hours in a 10% FBS-RPMI1640 medium (Iwaki Glass Co., Ltd.) under the presence of PMA (phorbol myristate acetate, 3.2×10^−7 M: Wako Pure Chemical Industries, Ltd.) to obtain differentiated macrophages. Probucol spiroquinone (Synthesis Example 1), probucol diphenoquinone (Synthesis Example 2), or probucol bisphenol (Synthesis Example 3) was added to a medium after being incorporated into acetyl-LDL according to a method of Tsujita, et al. [BIOCHEMISTRY, 35, 13011-13020 (1996)]. The cells were cultured in this medium for 48 hours, and then further cultured for 24 hours in the presence or absence of apoAI. The expression levels of intracellular ABCA1 were assayed according to a method disclosed herein below.
The cultured cells obtained in the same manner as in Assay Example 1 were examined for cholesterol and phospholipid taken out into the medium by the apoAI-dependent HDL-generating reaction, according to a method of Arakawa, et al. [J. LIPID RES., 41, 1952-1962, (2000)]. The results of the drug-treated cells were compared with that of non-treated cells (control). The resulting data were converted into digitized forms as in Assay Example 1, and the relative ratios of the taken out level in the drug-treated cells to that in the non-treated cells were calculated to evaluate the HDL-generating reaction accelerated by the assayed compounds. For comparison, the HDL-generating reaction accelerated by probucol (Wako Pure Chemical Industries, Ltd.) was examined in the same manner as aforementioned.

[2] = Increase of blood HDL level (rabbit), intravenous microemulsion; format: in vivo; details: i.v. microemulsion once a day for 7 days, control = 100
Description: The microemulsion (0.5 to 10 mL/body) was administered to each group of 4 rabbits via the ear vein once a day for 7 days. To a control group, a microemulsion containing no test drug was administered in the same manner. Blood was collected in the presence of heparin sodium from the ear vein of each rabbit at 3 hours after the last administration. The blood was centrifuged at 2000 g for 10 minutes to separate plasma. The plasma was applied to electrophoresis using Paragon Electrophoresis System (Beckman Coulter, Inc.) to separate plasma lipoprotein, followed by lipid staining. The images on the gel after the lipid staining were examined to covert the plasma HDL level of each rabbit into a digitized form for the evaluation. In reference to the content amount of each compound in the microemulsion, each blood compound level assumed just after the intravenous administration thereof was set as the dose of each compound.

[3] = system: ABCA1; assay: ABCA1 expression in THP-1 cells (immunoblotting of total membrane fraction); format: cell-based, human; details: for ABCA1 Expression Level (Relative Ratio %): PMA-differentiated THP-1 macrophages, compound incorporated into acetyl-LDL, 48 h then 24 h with or without apoAI, non-treated cells = 100; for intracellular ABCA1 expression level compared with non-treated cells (in words): THP-1 cells
Description: as §1
The agent-treated cells and non-treated cells were hypotonically disrupted in 5 mM Tris-HCl (pH 8.5), and then centrifuged (650 g for 5 minutes) to precipitate nuclear fractions. The supernatant was centrifuged at 105,000 g for 30 minutes to collect a total membrane fraction. The total membrane was dissolved in a solution containing 0.9 M urea, 0.2% Triton X-100, and 0.1% dithiothreitol, followed by addition of 10% lithium dodecyl sulfate solution at a volume ratio of 1/4. The resultant was subjected to electrophoretic separation using 10% SDS-7% polyacrylamide gel. The separated proteins were transferred and fixed onto PVDF membrane (Bio-Rad), and then subjected to immunoblotting with anti-human ABCA1 rabbit antibody (self-purified by an ordinary technique) to examine expressed ABCA1 protein levels. The obtained bands of the protein were read for density and size with Scion Image (image analysis software: Scion) to convert the results into digitized forms. The relative ratio of the ABCA1 expression level of the drug-treated cells to that of the non-treated cells was calculated to evaluate the ABCA1-expression activity of the assayed compounds.

[4] = Toxicity test, oral administration to mice for one week; format: in vivo
From the text: Probucol spiroquinone, probucol diphenoquinone, and probucol bisphenol were orally administered to mice for one week.

[5] = Increase of blood HDL level (mouse), oral administration; format: in vivo; details: for Plasma HDL Level (Relative Ratio %): 3 hours after last administration, control = 100
Description: Probucol spiroquinone (Synthesis Example 1: 50 mg/kg or 150 mg/kg) or probucol diphenoquinone (Synthesis Example 2: 50 mg/kg or 150 mg/kg) suspended in a 0.5% carboxymethylcellulose solution was orally administered to each group of 3 or 4 mice once a day for 7 days. To a control group, only the 0.5% carboxymethylcellulose solution was administered in the same manner. Animals were subjected to laparotomy under ether anesthesia at 3 hours after the last administration, and blood was collected in the presence of heparin sodium from the heart of each mouse. The blood was centrifuged at 2000 g for 10 minutes to separate plasma. The plasma was applied to electrophoresis using Paragon Electrophoresis System (Beckman Coulter, Inc.) to separate plasma lipoprotein, followed by lipid staining. The images on the gel after the lipid staining were examined to covert the plasma HDL level of each mouse into a digitized form for the evaluation.

[6] = dose as assumed blood level 0.14 μM
[7] = dose as assumed blood level 0.57 μM
[8] = 50 mg/kg orally once a day for 7 days
[9] = 150 mg/kg orally once a day for 7 days

Row | SMILES | Release of HDL Cholesterol (Relative Ratio %) [1] [%] | Release of Phospholipid (Relative Ratio %) [1] [%] | Plasma HDL Level (Relative Ratio %) [2, 6] [%] | Plasma HDL Level (Relative Ratio %) [2, 7] [%] | ABCA1 Expression Level (Relative Ratio %) [3] [%] | intracellular ABCA1 expression level compared with non-treated cells (in words) [3] | findings in toxicity test [4] | Plasma HDL Level (Relative Ratio %) ([2]; dose as assumed blood level 0.16 μM) [%] | Plasma HDL Level (Relative Ratio %) ([2]; dose as assumed blood level 0.31 μM) [%] | Plasma HDL Level (Relative Ratio %) [5, 8] [%] | Plasma HDL Level (Relative Ratio %) [5, 9] [%] | plasma HDL level increase compared with control group ([5]; 50 or 150 mg/kg orally once a day for 7 days) | apoAI-dependently taken out HDL cholesterol (in words) [1] | level of taken out phospholipid as fraction of non-treated cells [1]
1 | CC(C)(C)c1cc(-c2cc(C(C)(C)C)c(O)c(C(C)(C)C)c2)cc(C(C)(C)C)c1O [Probucol bisphenol, 4,4′-dihydroxy-3,5,3′,5′-tetra-t-butyldiphenyl] | 137 | 144 | 145 | 135 | 153 | remarkably elevated | no abnormal findings were observed | – | – | – | – | – | – | –
2 | CC(C)(C)C1=CC(=C2C=C(C(C)(C)C)C(=O)C(C(C)(C)C)=C2)C=C(C(C)(C)C)C1=O [Probucol diphenoquinone, 3,5,3′,5′-tetra-t-butyl-4,4′-diphenoquinone] | 159 | 200 | – | – | 173 | remarkably elevated | no abnormal findings were observed | 148 | 130 | 113 | 180 | – | – | –
3 | CC1(C)SC2(C=C(C(C)(C)C)C(=O)C(C(C)(C)C)=C2)C2(C=C(C(C)(C)C)C(=O)C(C(C)(C)C)=C2)S1 [Probucol spiroquinone, 2,4,9,11-tetrakis(1,1-dimethylethyl)-14,14-dimethyl-13,15-dithiadispiro[5.0.5.3]pentadeca-1,4,8,11-tetraene-3,10-dione] | 148 | 151 | 157 | 194 | 191 | remarkably elevated | no abnormal findings were observed | – | – | 120 | 124 | about 1.2 times | – | –
4 | CC(C)(Sc1cc(C(C)(C)C)c(O)c(C(C)(C)C)c1)Sc1cc(C(C)(C)C)c(O)c(C(C)(C)C)c1 [Probucol, 4,4′-(isopropylidenedithio)bis(2,6-di-t-butylphenol), reference compound] | 0 | 34 | – | – | – | – | – | – | – | – | – | – | no apoAI-dependently taken out HDL cholesterol was observed | less than ⅓
